From ChEMBL document CHEMBL5352386 (Eur J Med Chem, 2022)
pIC50, pKd: −log10 of the molar value. Activity calls are given as the source filed them. No cut-off for these calls is given here.

What was measured:
[1] = Acute toxicity in overnight fasted female ICR mouse assessed as animal death at 1 g/Kg, IG administered as single dose measured upto 15 days; conditions: in vivo, po, 1000 mg/kg, 360 h, time < 15 day
[2] = AUC (0 to t) in Sprague-Dawley rat at 10 mg/kg, po measured upto 1440 mins by LC/MS/MS analysis; assay type: ADME, organism-based; set-up: time < 1440 min, dose 10 mg/kg, route po; conditions: in vivo
Cholinesterase [3] = target: Cholinesterase (Equus caballus, UniProt P81908); assay: Inhibition of equine serum BuChE using butyrylthiocholine iodide as substrate incubated for 10 mins followed by substrate addition by DTNB-reagent based Ellman's colorimetric assay
Cholinesterase (Equus caballus, UniProt P81908), sequence (P81908 whole entry): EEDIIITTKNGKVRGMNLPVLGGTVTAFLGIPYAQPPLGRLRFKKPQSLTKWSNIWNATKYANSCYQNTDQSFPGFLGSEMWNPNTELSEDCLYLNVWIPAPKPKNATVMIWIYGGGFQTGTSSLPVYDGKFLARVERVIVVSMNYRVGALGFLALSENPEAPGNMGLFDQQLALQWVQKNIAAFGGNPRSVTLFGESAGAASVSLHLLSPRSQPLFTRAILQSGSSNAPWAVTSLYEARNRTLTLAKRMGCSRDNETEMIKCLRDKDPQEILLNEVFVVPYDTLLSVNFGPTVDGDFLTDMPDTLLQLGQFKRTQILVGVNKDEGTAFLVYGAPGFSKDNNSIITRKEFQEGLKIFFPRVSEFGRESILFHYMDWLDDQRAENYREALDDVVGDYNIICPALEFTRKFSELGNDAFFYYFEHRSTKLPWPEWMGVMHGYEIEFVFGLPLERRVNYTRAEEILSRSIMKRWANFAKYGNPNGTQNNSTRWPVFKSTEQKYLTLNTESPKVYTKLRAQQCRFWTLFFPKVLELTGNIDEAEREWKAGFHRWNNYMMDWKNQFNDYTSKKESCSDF

Cholinesterase [4] = target: T1, Cholinesterase (Homo sapiens, UniProt P06276); assay: Inhibition of human BuChE using butyrylthiocholine iodide as substrate incubated for 10 mins followed by substrate addition by DTNB-reagent based Ellman's colorimetric assay
T1 sequence (P06276 whole entry): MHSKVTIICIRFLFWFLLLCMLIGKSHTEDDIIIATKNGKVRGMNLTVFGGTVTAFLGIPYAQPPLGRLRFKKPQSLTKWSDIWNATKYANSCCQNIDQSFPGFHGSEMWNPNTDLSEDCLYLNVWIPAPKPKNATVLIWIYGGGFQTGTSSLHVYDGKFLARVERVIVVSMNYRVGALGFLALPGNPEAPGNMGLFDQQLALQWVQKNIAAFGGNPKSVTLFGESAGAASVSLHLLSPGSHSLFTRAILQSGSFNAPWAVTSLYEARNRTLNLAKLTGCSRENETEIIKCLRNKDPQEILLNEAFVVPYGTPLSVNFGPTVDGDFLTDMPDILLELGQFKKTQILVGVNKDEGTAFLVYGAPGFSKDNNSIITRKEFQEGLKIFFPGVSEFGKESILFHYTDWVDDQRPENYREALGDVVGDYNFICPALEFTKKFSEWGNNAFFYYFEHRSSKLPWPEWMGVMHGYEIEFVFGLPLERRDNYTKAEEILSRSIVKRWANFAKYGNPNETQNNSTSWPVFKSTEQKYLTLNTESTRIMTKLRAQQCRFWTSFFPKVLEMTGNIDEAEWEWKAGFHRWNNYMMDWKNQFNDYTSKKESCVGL

PC-12 [5] = assay: Cytotoxicity against rat PC12 cells assessed as survival rate at 100 uM measured after 24 hrs by MTT assay relative to control; conditions: PC-12, 24 h, read-out: Survival
SH-SY5Y [6] = assay: Cytotoxicity against human SH-SY5Y cells assessed as survival rate at 100 uM measured after 24 hrs by MTT assay relative to control; assay type: functional; conditions: read-out: Survival
[7] = Cytotoxicity against mouse BV-2 cells assessed as inhibition of cell growth measured after 24 hrs by MTT assay; assay type: toxicity, cell-based
L02 = assay: Cytotoxicity against human L02 cells assessed as survival rate at 100 uM measured after 24 hrs by MTT assay relative to control; assay type: functional; conditions: read-out: Survival
[8] = Acute toxicity in overnight fasted male ICR mouse assessed as animal death at 1 g/Kg, IG administered as single dose measured upto 15 days; conditions: in vivo, po, 1000 mg/kg, 360 h, time < 15 day
[9] = Acute toxicity in overnight fasted male ICR mouse assessed as body weight loss at 1 g/Kg, IG administered as single dose measured upto 15 days; conditions: in vivo, po, 1000 mg/kg, 360 h, time < 15 day
[10] = Acute toxicity in overnight fasted female ICR mouse assessed as body weight loss at 1 g/Kg, IG administered as single dose measured upto 15 days; conditions: in vivo, po, 1000 mg/kg, 360 h, time < 15 day
[11] = Acute toxicity in overnight fasted male ICR mouse assessed as abnormal behavior at 1 g/Kg, IG administered as single dose measured upto 15 days; conditions: in vivo, po, 1000 mg/kg, 360 h, time < 15 day
[12] = Acute toxicity in overnight fasted female ICR mouse assessed as abnormal behavior at 1 g/Kg, IG administered as single dose measured upto 15 days; conditions: in vivo, po, 1000 mg/kg, 360 h, time < 15 day
[13] = Metabolic stability in human liver microsomes assessed as half life at 1 uM incubated upto 50 mins in presence of NADPH by LC/MS/MS analysis; assay type: ADME, Microsome
[14] = Metabolic stability in human liver microsomes assessed as parent compound remaining at 1 uM incubated upto 50 mins in presence of NADPH by LC/MS/MS analysis; assay type: ADME, Microsome; conditions: read-out: Stability
[15] = AUC (0 to t) in Sprague-Dawley rat at 10 mg/kg, iv measured upto 1440 mins by LC/MS/MS analysis; assay type: ADME, organism-based; set-up: time < 1440 min, dose 10 mg/kg, route iv; conditions: Sprague-Dawley, in vivo
[16] = AUC (0 to infinity) in Sprague-Dawley rat at 10 mg/kg, po measured upto 1440 mins by LC/MS/MS analysis; assay type: ADME, organism-based; set-up: dose 10 mg/kg, time < 1440 min, route po; conditions: in vivo
[17] = AUC (0 to infinity) in Sprague-Dawley rat at 10 mg/kg, iv measured upto 1440 mins by LC/MS/MS analysis; assay type: ADME, organism-based; set-up: dose 10 mg/kg, time < 1440 min, route iv; conditions: Sprague-Dawley, in vivo
[18] = MRT infinity in Sprague-Dawley rat at 10 mg/kg, po measured upto 1440 mins by LC/MS/MS analysis; assay type: ADME, organism-based; conditions: in vivo
[19] = MRT infinity in Sprague-Dawley rat at 10 mg/kg, iv measured upto 1440 mins by LC/MS/MS analysis; assay type: ADME, organism-based; conditions: in vivo
[20] = Half life in Sprague-Dawley rat at 10 mg/kg, po measured upto 1440 mins by LC/MS/MS analysis; assay type: ADME, organism-based; conditions: in vivo
[21] = Half life in Sprague-Dawley rat at 10 mg/kg, iv measured upto 1440 mins by LC/MS/MS analysis; assay type: ADME, organism-based; conditions: in vivo
[22] = Tmax in Sprague-Dawley rat at 10 mg/kg, po measured upto 1440 mins by LC/MS/MS analysis; assay type: ADME, organism-based; conditions: in vivo
[23] = Cmax in Sprague-Dawley rat at 10 mg/kg, po measured upto 1440 mins by LC/MS/MS analysis; assay type: ADME, organism-based; set-up: time < 1440 min, dose 10 mg/kg, route po; conditions: in vivo, 24 h
[24] = Cmax in Sprague-Dawley rat at 10 mg/kg, iv measured upto 1440 mins by LC/MS/MS analysis; assay type: ADME, organism-based; set-up: dose 10 mg/kg, time < 1440 min, route iv; conditions: Sprague-Dawley, in vivo, read-out: Cmax
[25] = Oral bioavailability in Sprague-Dawley rat at 10 mg/kg measured upto 1440 mins by LC/MS/MS analysis; assay type: ADME, organism-based; conditions: in vivo
[26] = Ratio of drug exposure in plasma to brain in ICR mouse measured after 10 mins by LC/MS/MS analysis; assay type: ADME, cell-free; conditions: in vivo
[27] = Ratio of drug exposure in plasma to brain in ICR mouse measured after 20 mins by LC/MS/MS analysis; assay type: ADME, cell-free; conditions: in vivo
[28] = Ratio of drug exposure in plasma to brain in ICR mouse measured after 30 mins by LC/MS/MS analysis; assay type: ADME, cell-free; conditions: in vivo, 0.5 h
[29] = Ratio of drug exposure in plasma to brain in ICR mouse measured after 120 mins by LC/MS/MS analysis; assay type: ADME, cell-free; conditions: in vivo, 2 h
[30] = Ratio of drug exposure in plasma to brain in ICR mouse measured after 60 mins by LC/MS/MS analysis; assay type: ADME, cell-free; conditions: in vivo, 1 h
[31] = Ratio of drug exposure in plasma to brain in ICR mouse measured after 240 by LC/MS/MS analysis; assay type: ADME, cell-free; conditions: in vivo, 4 h, time 240 min
[32] = Ratio of drug exposure in plasma to brain in ICR mouse measured after 480 mins by LC/MS/MS analysis; assay type: ADME, cell-free; conditions: in vivo, 8 h
[33] = Cmax in ICR mouse plasma administered as oral dose by LC/MS/MS analysis; assay type: ADME; set-up: route po
[34] = Cmax in ICR mouse brain administered as oral dose by LC/MS/MS analysis; assay type: ADME, tissue-based; set-up: route po
[35] = AUC (0 to t) in ICR mouse plasma administered as oral dose by LC/MS/MS analysis; assay type: ADME; set-up: route po
[36] = AUC (0 to t) in ICR mouse brain administered as oral dose by LC/MS/MS analysis; assay type: ADME, tissue-based; set-up: route po
[37] = Ratio of Cmax in ICR mouse brain to Cmax in ICR mouse plasma; assay type: ADME, cell-free
[38] = Ratio of AUCt in ICR mouse brain to AUCt in ICR mouse plasma; assay type: ADME, cell-free
[39] = Drug uptake in ICR mouse central nervous system; assay type: ADME, tissue-based; conditions: in vivo
Mus musculus [40] = assay: Neuroprotective activity against Abeta42 induced cognition impairement in AD mouse model assessed as reduction in latency time to platform at 10 mg/kg, po measured after 14 days by Morris water maze analysis; assay type: functional, organism-based; conditions: time 14.0 day
Mus musculus [41] = assay: Neuroprotective activity against Abeta42 induced cognition impairement in AD mouse model assessed as reduction in confusion of escape trajectory at 10 mg/kg, po measured after 14 days; assay type: functional, organism-based; conditions: time 14.0 day
SH-SY5Y [42] = assay: Neuroprotective activity against Abeta1-42 induced toxicity in human SH-SY5Y cells at 1 to 5 uM preincubated for 1 hr with compound followed by co-incubation with Abeta1-42 and measured after 24 hrs by MTT assay; assay type: functional, cell-based; conditions: dose 1-5 µM, time 25.0 hrs
SH-SY5Y [43] = assay: Neuroprotective activity against glutamate induced toxicity in human SH-SY5Y cells at low concentration preincubated for 1 hr with compound followed by co-incubation with glutamate and measured after 24 hrs by MTT assay; assay type: functional, cell-based; conditions: time 25.0 hrs
SH-SY5Y [44] = assay: Neuroprotective activity against glutamate induced toxicity in human SH-SY5Y cells assessed as effect on cell survival rate at 10 to 20 uM preincubated for 1 hr with compound followed by co-incubation with glutamate and measured after 24 hrs by MTT assay; assay type: functional, cell-based; conditions: dose 10-20 µM, time 25.0 hrs
PC-12 [45] = assay: Cytoprotective activity against H2O2 induced cell damage in rat PC12 cells at 10 to 20 uM preincubated for 1 hr with compound followed by co-incubation with H2O2 and measured after 24 hrs by MTT assay; assay type: functional, cell-based; conditions: dose 10-20 µM, time 25.0 hrs
BV-2 = assay: Induction of antioxidant effect in mouse BV-2 cells assessed as prevention of LPS-induced ROS production preincubated for 1 hr with compound followed by LPS stimulation and measured after 24 hrs by DCFH-DA staining based inverted fluorescence microscopy analysis; assay type: functional, cell-based; conditions: time 25.0 hrs
SH-SY5Y [46] = assay: Induction of antioxidant effect in human SH-SY5Y cells assessed as prevention of Abeta1-42 induced ROS production preincubated for 1 hr with compound followed by Abeta1-42 stimulation and measured after 24 hrs by DCFH-DA staining based inverted fluorescence microscopy analysis; assay type: functional, cell-based; conditions: time 25.0 hrs
Mus musculus [47] = assay: Neuroprotective activity against Abeta42 induced cognition impairement in AD ICR mouse model assessed as increase in body weight at 10 mg/kg measured after 21 days; assay type: functional, organism-based; conditions: time 21.0 day
Mus musculus [48] = assay: Neuroprotective activity against Abeta42 induced cognition impairement in AD ICR mouse model assessed as increase in ghrelin level in mouse plasma administered as oral dose for 21 days; assay type: functional, organism-based; conditions: time 21.0 day
Mus musculus [49] = assay: Neuroprotective activity against Abeta42 induced cognition impairement in AD ICR mouse model assessed as increase in ghrelin level in mouse brain administered as oral dose for 21 days; assay type: functional, organism-based; conditions: time 21.0 day
SH-SY5Y [50] = assay: Cytotoxicity against human SH-SY5Y cells assessed as inhibition of cell growth measured after 24 hrs by MTT assay; assay type: functional, cell-based
Cholinesterase [51] = target: T1, Cholinesterase; assay: Binding affinity to human BChE assessed as dissociation constant by Surface Plasmon Resonance assay

N#Cc1cc(Br)cc(NC(=O)Cn2c(-c3nonc3N)nc3ccccc32)c1
Activity [1]: Non-Toxic | AUC(0-t) at 24 h [2]: 628 ng·h/mL | pIC50 (Cholinesterase [3]): 9.82 | pIC50 (Cholinesterase [4]): 7.34 | viability at 100 µM (PC-12 [5]): 54.6% | viability at 100 µM (SH-SY5Y [6]): 57.8% | IC50 at 24 h [7]: 27800 nM | viability at 100 µM (L02): 72.4% | Activity [8]: Non-Toxic | Activity [9]: Non-Toxic | Activity [10]: Non-Toxic | Activity [11]: Non-Toxic | Activity [12]: Non-Toxic | half-life at 1 µM [13]: 5.75 h | remaining at 50 min, 1 µM [14]: 89.7% | AUC(0-t) at 24 h [15]: 860 ng·h/mL | AUC(0-inf) [16]: 662 ng·h/mL | AUC(0-inf) [17]: 1090 ng·h/mL | MRT inf [18]: 11.6 h | MRT inf [19]: 14.1 h | half-life [20]: 5.47 h | half-life [21]: 8.87 h | Tmax [22]: 9.5 min | Cmax [23]: 44.73 ng/mL | Cmax [24]: 488 ng/mL | bioavailability [25]: 73.4% | Ratio [26]: 13.33 | Ratio [27]: 2.23 | Ratio [28]: 0.82 | Ratio [29]: 0.54 | Ratio [30]: 0.27 | Ratio [31]: 0.27 | Ratio [32]: 0.88 | Cmax [33]: 1760 ng/mL | Cmax [34]: 179 ng/mL | AUC(0-t) [35]: 1160 ng·h/mL | AUC(0-t) [36]: 356 ng·h/mL | Kp [37]: 0.1 | Kp [38]: 0.31 | Drug uptake [39]: Active | Activity (Mus musculus [40]): Active | Activity (Mus musculus [41]): Active | Activity (SH-SY5Y [42]): Active | Activity (SH-SY5Y [43]): Active | Activity (SH-SY5Y [44]): Active | Activity (PC-12 [45]): Active | Activity (BV-2): Active | Activity (SH-SY5Y [46]): Active | Activity (Mus musculus [47]): Active | Activity (Mus musculus [48]): Active | Activity (Mus musculus [49]): Active

Nc1nonc1-c1nc2ccccc2n1CC(=O)Nc1cc([N+](=O)[O-])cc([N+](=O)[O-])c1
Activity [1]: Non-Toxic | pIC50 (Cholinesterase [3]): 8.53 | pIC50 (Cholinesterase [4]): 7.46 | viability at 100 µM (PC-12 [5]): 50.8% | pIC50 (SH-SY5Y [50]): 4.14 | IC50 at 24 h [7]: 19200 nM | viability at 100 µM (L02): 52.4% | pKd (Cholinesterase [51]): 8.51 | Activity (Cholinesterase [51]; dose 0.3125-40 nM): Dose-Dependent Effect | Activity [8]: Non-Toxic | Activity [9]: Non-Toxic | Activity [10]: Non-Toxic | Activity [11]: Non-Toxic | Activity [12]: Non-Toxic | half-life at 1 µM [13]: 11.5 h | remaining at 50 min, 1 µM [14]: 92.8% | Activity (Mus musculus [40]): Active | Activity (Mus musculus [41]): Active | Activity (SH-SY5Y [42]): Active | Activity (SH-SY5Y [43]): Active | Activity (SH-SY5Y [44]): Active | Activity (PC-12 [45]): Active | Activity (BV-2): Active | Activity (SH-SY5Y [46]): Active
